Measured values published in PMC6328587 (Nature Communications, 2019).
Like-named read-outs stand apart in the source and are kept apart here.

How the values were obtained:
α-tubulin = experiment: CETSA in MDA-MB-231 cell lysate, negative control protein; assay type: binding, human; conditions: 100 µM PROTAC, 51-55 °C, vs DMSO
Description: CETSA protocol was adapted from[60]. In all, 3 × 10^7 MDA-MB-231 cells (1 × 10^7 cells per condition) were collected and resuspended in ice-cold 1X PBS supplemented with 1X protease inhibitor cocktail (Roche) and lysed by three cycles of liquid nitrogen snap freeze, followed by 50% thaw in a room temperature water bath and an additional 50% thaw at 4 °C. After each freeze–thaw cycle, lysate was vortexed briefly to ensure homogenous thawing. Lysate was then cleared for 20 min by centrifugation (14,000 × g at 4 °C) and the soluble fraction was divided into three equal aliquots. The aliquots were treated with vehicle (2.5% DMSO), 100 µM SJFα, or 100 µM SJFδ and incubated at room temperature for 30 min with gentle rotation. Each aliquot was then divided (50 µL) into eight PCR tubes and individually heated at the indicated temperature for 3 min followed by cooling at room temperature for 3 min. After cooling, samples were spun down for 20 min (14,000 × g at 4 °C) and the supernatant (soluble fraction) was analyzed by SDS-PAGE and immunoblotted for p38δ and alpha-tubulin (negative control).

FLAG-p38α = biological target: T1, FLAG-p38α (Homo sapiens, UniProt Q16539); experiment: Ubiquitination assay, FLAG-p38α and HA-Ub in HeLa cells; assay type: cell-based; conditions: 500 nM PROTAC, 1 h
T1 construct: expressed in transfected cells; host or cells: HeLa
T1 sequence (Q16539 whole entry): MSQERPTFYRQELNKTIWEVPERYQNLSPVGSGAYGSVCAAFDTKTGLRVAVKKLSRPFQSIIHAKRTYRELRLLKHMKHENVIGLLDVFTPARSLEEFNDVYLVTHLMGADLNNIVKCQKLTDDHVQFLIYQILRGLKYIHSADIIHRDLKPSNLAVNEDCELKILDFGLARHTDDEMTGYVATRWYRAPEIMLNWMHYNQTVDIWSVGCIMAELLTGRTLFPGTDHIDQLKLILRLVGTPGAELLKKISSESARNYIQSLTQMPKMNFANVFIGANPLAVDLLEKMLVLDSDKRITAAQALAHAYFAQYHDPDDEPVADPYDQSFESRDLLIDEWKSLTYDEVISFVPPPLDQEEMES
Description: HeLa cells (2 × 10^6) were seeded into 10 cm dishes and allowed to adhere overnight. On the following day, cells were transfected with 3 µg pcDNA5-FLAG-p38α or pcDNA5-FLAG-p38δ and 1 µg pRK5-HA-Ubiquitin-WT (Addgene plasmid #17608) in Opti-MEM media using Lipofectamine 2000 (Invitrogen). After 6 h, Opti-MEM media were replaced with DMEM (1 × ) and cells were grown for an additional 24 h. After this time, cells were treated with indicated concentrations of either vehicle (DMSO) or PROTAC for the indicated amount of time at 37 °C. Cells were then placed on ice, rinsed twice with ice-cold 1X PBS and lysed in 500 µL modified 1X RIPA buffer (25 mM Tris-HCl pH 7.6, 150 mM NaCl, 1% NP-40, 1% sodium deoxycholate, 0.1% SDS) containing 5 mM 1,10-phenanthroline monohydrate, 10 mM N-ethylmaleimide, 20 µM PR-619, and 1X protease inhibitor cocktail (Roche). Lysates were spun down at 14,000 × g at 4 °C for 20 min and protein content was measured by Pierce BCA Protein Assay (ThermoFisher Scientific). […] Immunoprecipitated protein was eluted off of the beads by heating at 95 °C for 5 min and the supernatant was run on an SDS-PAGE gel and evaluated for the presence of immunoprecipitated FLAG-tagged proteins (anti-FLAG M2, Sigma #F1804), as well as ubiquitinated FLAG-tagged proteins (anti-HA-tag (6E2), CST #2367). […]

p38δ = biological target: T2, p38δ (Homo sapiens, UniProt O15264); experiment: PROTAC-induced p38δ degradation, western blot in MDA-MB-231 cells; assay type: cell-based
T2 construct: endogenous in cells; host or cells: MDA-MB-231
T2 sequence (O15264 1-365): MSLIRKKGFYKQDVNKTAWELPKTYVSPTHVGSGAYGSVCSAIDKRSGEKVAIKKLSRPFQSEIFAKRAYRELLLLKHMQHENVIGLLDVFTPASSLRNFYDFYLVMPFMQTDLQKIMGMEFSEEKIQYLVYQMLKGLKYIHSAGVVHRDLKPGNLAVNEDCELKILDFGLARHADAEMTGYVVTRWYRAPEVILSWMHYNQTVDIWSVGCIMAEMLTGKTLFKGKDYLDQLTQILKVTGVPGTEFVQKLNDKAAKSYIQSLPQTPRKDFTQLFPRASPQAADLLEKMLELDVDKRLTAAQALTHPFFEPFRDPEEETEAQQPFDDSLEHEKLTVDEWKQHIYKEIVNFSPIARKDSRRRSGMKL
Description: MDA-MB-231 and HeLa cells were obtained from the American Type Culture Collection (ATCC), cultured in RPMI-1640 medium (1 × ) and Dulbecco’s modified Eagle’s medium (DMEM; 1 × ), respectively, containing 10% fetal bovine serum and 1% penicillin–streptomycin and grown in a humidified incubator at 37 °C and 5% CO2.
[…] once with ice-cold PBS (1 × ), followed by lysis in buffer containing 25 mM Tris [pH 7.5], 0.25% sodium deoxycholate, 1% Triton X-100, supplemented with 1X protease inhibitor cocktail (Roche), and phosphatase inhibitors (10 mM NaF, 1 mM Na3VO4, and 20 mM β-glycerophosphate), unless otherwise noted. Lysates were spun at 14,000 × g for 10 min at 4 °C and supernatant was evaluated for protein content using a Pierce BCA Protein Assay (ThermoFisher Scientific). In all experiments, 25–50 μg of protein was loaded onto 10% SDS-PAGE gels or 4–20% Criterion TGX precast gradient gels (Bio-Rad), transferred to nitrocellulose membranes, and probed with the specified antibodies overnight at 4 °C in 1X TBS-Tween (Tris-buffered saline plus 0.02% Tween 20) containing 5% non-fat milk. Immunoblots were visualized using a Bio-Rad ChemiDoc imaging instrument and subsequently processed and quantified using the accompanying Bio-Rad ImageLab software. See Supplementary Figure 8 for uncropped scans of western blots shown in the main text figures.
Western blot data in Figs. 2, 6, and Supplementary Figures 2, 3 were quantified by using the band feature in Image Lab (Bio-Rad). The p38 values were normalized to the α-tubulin signal to account for differences in protein load, and PROTAC-treated normalized values were expressed as a % of the vehicle-treated (no PROTAC) value, which itself was defined as 100% p38 protein level. […] The sigmoidal fit established both the full extent of degradation, or Dmax at the bottom asymptote of the curve, as well as the DC50, which is the inflection point at which 50% of the total degradation observed was reached.

[1] = 0.025-5.0 µM survey, biological duplicates, ± one s.d., Supplementary Table 1
[2] = 0.025-5.0 µM survey, ± one s.d., Supplementary Table 1, read-out: Dmax p38δ (maximum percentage of degradation)
[3] = wider dose response 1 nM-100 µM, Supplementary Figure 3, read-out: Dmax p38δ

| DC50 (p38δ; [1]) | Dmax (p38δ; [2]) | Dmax (p38δ; [3]) | p38δ downregulation after pre-treatment with 1 µM epoxomicin or 1 µM MLN4924 (p38δ; 250 nM PROTAC, 6 h) | hook effect in p38δ degradation (p38δ; up to 100 µM) | DC50 (p38δ; wider dose response 1 nM-100 µM, Supplementary Figure 3) | Compound | thermal shift of α-tubulin (α-tubulin) | ubiquitination of FLAG-p38α (FLAG-p38α) |
| --- | --- | --- | --- | --- | --- | --- | --- | --- |
| 1160 ± 2470 nM | 25.1 ± 22.7% | 18% | – | – | – | COc1cc2c(Oc3ccc(NC(=O)C4(C(=O)Nc5ccc(F)cc5)CC4)cc3F)ccnc2cc1OCCCCOCCCCOCC(=O)N[C@H](C(=O)N1C[C@H](O)C[C@H]1C(=O)NCc1ccc(-c2scnc2C)cc1)C(C)(C)C [SJFα] | thermal shifts were not seen | substantial, high molecular weight (HMW) poly-Ub conjugation |
| 79.2 ± 28 nM | 98.4 ± 6.6% | 99.4 ± 3.31% | completely rescued | no hook effect | 46.2 ± 9.85 nM | COc1cc2c(Oc3ccc(NC(=O)C4(C(=O)Nc5ccc(F)cc5)CC4)cc3F)ccnc2cc1OCCOCCOCCOc1cc(-c2scnc2C)ccc1CNC(=O)[C@@H]1C[C@@H](O)CN1C(=O)[C@H](C(C)C)N1Cc2ccccc2C1=O [SJFδ] | thermal shifts were not seen | this effect was not seen |
